Drawing on patent publication US10323007B1, “N2N N4-disubstituted quinazoline-2,4-diamines and uses thereof” (University of South Florida, priority 2016, dated 2019), this text covers MIC for 10 compounds.

Converted amounts (≈) assume the structure as drawn. Like-named read-outs stand apart in the source and are kept apart here. A value given as a limit tells only on which side of the number the result lay.

Assay type in all cases: cell-based, Acinetobacter baumannii
One assay has as its system A. baumannii 1403. The assay can be described thus: MIC assay, strain 1403. As to the method: (§1) MIC and MBC assays were performed in this study as documented by us previously.^17,23,24,25 The A. baumannii strains used are detailed in Table 7.
The test system of the next assay is A. baumannii 1646. Kind of assay: MIC assay, strain 1646. The protocol: as §1
For a further assay, the system named is A. baumannii 1649. Kind of assay: MIC assay, strain 1649. The protocol:
as §1

The subject of another assay is A. baumannii 1650. Kind of assay: MIC assay, strain 1650. The protocol: as §1
Another assay deals with A. baumannii 1651. Kind of assay: MIC assay, strain 1651. The protocol: as §1
A further assay deals with A. baumannii 1652. The assay can be described thus: MIC assay, strain 1652. As to the method:
as §1

The mark [1] stands for this setting: Acinetobacter baumannii, strain 1403, Tables 1, 3, 4, 5 and footnotes, read-out: 1403 MIC.
[2] abbreviates: Acinetobacter baumannii, strain 1646, Tables 1, 3, 4, 5 and footnotes, read-out: 1646 MIC.
Where [3] appears, read: Acinetobacter baumannii, strain 1649, Tables 1, 3, 4, 5 and footnotes, read-out: 1649 MIC.
The mark [4] stands for this setting: Acinetobacter baumannii, strain 1650, Tables 1, 3, 4, 5 and footnotes, read-out: 1650 MIC.
Setting [5] is: Acinetobacter baumannii, strain 1651, Tables 1, 3, 4, 5 and footnotes, read-out: 1651 MIC.
Where [6] appears, read: Acinetobacter baumannii, strain 1652, Tables 1, 3, 4, 5 and footnotes, read-out: 1652 MIC.

Take `CNc1nc(NCc2ccccc2)c2cc(Cl)ccc2n1` [Compound 9, N^4-Benzyl-6-chloro-N^2-methylquinazoline-2,4-diamine]: the minimum inhibitory concentration (MIC) in the assay on A. baumannii 1403 (setting [1]) is over 50 µM; in the assay with A. baumannii 1646 (setting [2]), 4 µM (≈ 1.2 µg/mL); with A. baumannii 1649 (setting [3]), 50 µM (≈ 14.9 µg/mL); in the assay on A. baumannii 1650 (setting [4]) it was 50 µM (≈ 14.9 µg/mL); in the assay on A. baumannii 1651 (setting [5]), 6 µM (≈ 1.79 µg/mL); with A. baumannii 1652 (setting [6]), over 50 µM.

Turning to `CNc1nc(NCc2ccccc2)c2cc(C)ccc2n1` [Compound 11, N^4-Benzyl-N^2,6-dimethylquinazoline-2,4-diamine], the minimal inhibitory concentration (MIC) was over 50 µM in the assay with A. baumannii 1403 (setting [1]); 6 µM (≈ 1.67 µg/mL) with A. baumannii 1646 (setting [2]); over 50 µM in the assay on A. baumannii 1649 (setting [3]); over 50 µM with A. baumannii 1650 (setting [4]); 12 µM (≈ 3.34 µg/mL) in the assay on A. baumannii 1651 (setting [5]); over 50 µM with A. baumannii 1652 (setting [6]).

As for `CNc1nc(NCc2ccccc2)nc2cc(Br)ccc12` [Compound 6, N^2-Benzyl-7-bromo-N^4-methylquinazoline-2,4-diamine], the minimum inhibitory concentration (MIC) with A. baumannii 1403 (Acinetobacter baumannii, strain 1403, Table 2, read-out: 1403 MIC) was over 50 µM; in the assay on A. baumannii 1646 (Acinetobacter baumannii, strain 1646, Table 2, read-out: 1646 MIC) it was 6 µM (≈ 2.06 µg/mL); with A. baumannii 1649 (Acinetobacter baumannii, strain 1649, Table 2, read-out: 1649 MIC), 25 µM (≈ 8.58 µg/mL); in the assay on A. baumannii 1650 (Acinetobacter baumannii, strain 1650, Table 2, read-out: 1650 MIC), over 50 µM; in the assay with A. baumannii 1651 (Acinetobacter baumannii, strain 1651, Table 2, read-out: 1651 MIC) it was 10 µM (≈ 3.43 µg/mL); in the assay with A. baumannii 1652 (Acinetobacter baumannii, strain 1652, Table 2, read-out: 1652 MIC) it was over 50 µM.

Consider `CNc1nc(NCc2ccccc2)c2ccc(C)cc2n1` [Compound 15, N^4-Benzyl-N^2,7-dimethylquinazoline-2,4-diamine], for which the MIC in the assay with A. baumannii 1403 (setting [1]) is over 50 µM; in the assay on A. baumannii 1646 (setting [2]), 12 µM (≈ 3.34 µg/mL); in the assay with A. baumannii 1649 (setting [3]) it was over 50 µM; with A. baumannii 1650 (setting [4]), over 50 µM; in the assay with A. baumannii 1651 (setting [5]) it was over 50 µM; in the assay with A. baumannii 1652 (setting [6]), over 50 µM.

With `C=Cc1ccc2nc(NCc3ccccc3)nc(NC)c2c1` [Compound 22, N^2-Benzyl-N^4-methyl-6-vinylquinazoline-2,4-diamine], the minimum inhibitory concentration (MIC) with A. baumannii 1403 (setting [1]) worked out at 25 µM (≈ 7.26 µg/mL); in the assay with A. baumannii 1646 (setting [2]) it was 2 µM (≈ 0.581 µg/mL); in the assay on A. baumannii 1649 (setting [3]) it was 10 µM (≈ 2.9 µg/mL); in the assay with A. baumannii 1650 (setting [4]), 20 µM (≈ 5.81 µg/mL); in the assay on A. baumannii 1651 (setting [5]), 25 µM (≈ 7.26 µg/mL); in the assay on A. baumannii 1652 (setting [6]), 25 µM (≈ 7.26 µg/mL).

For `CCc1ccc2nc(NCc3ccccc3)nc(NC)c2c1` [Compound 23, N^2-Benzyl-6-ethyl-N^4-methylquinazoline-2,4-diamine], the MIC was 30 µM (≈ 8.77 µg/mL) in the assay on A. baumannii 1403 (setting [1]); 2 µM (≈ 0.585 µg/mL) in the assay with A. baumannii 1646 (setting [2]); 10 µM (≈ 2.92 µg/mL) in the assay with A. baumannii 1649 (setting [3]); 30 µM (≈ 8.77 µg/mL) with A. baumannii 1650 (setting [4]); 2 µM (≈ 0.585 µg/mL) in the assay on A. baumannii 1651 (setting [5]); 30 µM (≈ 8.77 µg/mL) in the assay on A. baumannii 1652 (setting [6]).

Regarding `CNc1nc(NCc2ccccc2)c2cc(OC)ccc2n1` [Compound 12, N^4-Benzyl-6-methoxy-N^2-methylquinazoline-2,4-diamine], the minimum inhibitory concentration (MIC) in the assay on A. baumannii 1403 (setting [1]) was over 50 µM; in the assay on A. baumannii 1646 (setting [2]) it was 6 µM (≈ 1.77 µg/mL); in the assay on A. baumannii 1649 (setting [3]) it was over 50 µM; with A. baumannii 1650 (setting [4]) it was over 50 µM; in the assay on A. baumannii 1651 (setting [5]), 8 µM (≈ 2.35 µg/mL); in the assay on A. baumannii 1652 (setting [6]), over 50 µM.

Take `CNc1nc(NCc2ccccc2)c2cc(Br)ccc2n1` [Compound 10, N^4-Benzyl-6-bromo-N^2-methylquinazoline-2,4-diamine]: the MIC is over 50 µM with A. baumannii 1403 (setting [1]); 2 µM (≈ 0.686 µg/mL) in the assay with A. baumannii 1646 (setting [2]); 50 µM (≈ 17.2 µg/mL) with A. baumannii 1649 (setting [3]); over 50 µM in the assay on A. baumannii 1650 (setting [4]); over 50 µM in the assay on A. baumannii 1651 (setting [5]); over 50 µM in the assay with A. baumannii 1652 (setting [6]).

In the case of `CNc1nc(NCc2ccccc2)c2ccc(Cl)cc2n1` [Compound 13, N^4-Benzyl-7-chloro-N^2-methylquinazoline-2,4-diamine], the minimal inhibitory concentration (MIC) in the assay with A. baumannii 1403 (setting [1]) was over 50 µM; in the assay on A. baumannii 1646 (setting [2]), 4 µM (≈ 1.2 µg/mL); in the assay on A. baumannii 1649 (setting [3]), over 50 µM; with A. baumannii 1650 (setting [4]) it was over 50 µM; with A. baumannii 1651 (setting [5]) it was over 50 µM; in the assay with A. baumannii 1652 (setting [6]) it was over 50 µM.

For the compound `CNc1nc(NCc2ccccc2)nc2ccc(-c3ccccc3)cc12` [Compound 31, N^2-Benzyl-N^4-methyl-6-phenylquinazoline-2,4-diamine], the MIC with A. baumannii 1403 (Acinetobacter baumannii, 1403, read-out: 1403 MIC) worked out at 30 µM (≈ 10.2 µg/mL); with A. baumannii 1646 (Acinetobacter baumannii, 1646, read-out: 1646 MIC), 10 µM (≈ 3.4 µg/mL); in the assay on A. baumannii 1649 (Acinetobacter baumannii, 1649, read-out: 1649 MIC), 20 µM (≈ 6.81 µg/mL); in the assay on A. baumannii 1650 (Acinetobacter baumannii, 1650, read-out: 1650 MIC), 20 µM (≈ 6.81 µg/mL); in the assay with A. baumannii 1651 (Acinetobacter baumannii, 1651, read-out: 1651 MIC), 2 µM (≈ 0.681 µg/mL); in the assay on A. baumannii 1652 (Acinetobacter baumannii, 1652, read-out: 1652 MIC), 50 µM (≈ 17 µg/mL).

By MIC is commonly meant the lowest concentration that inhibits growth of the organism.
